Measurements from patent publication US20190274303A1, “USE OF A DIFLUORO-(2-HYDROXYPROPYL)PYRIDINE COMPOUND AS A FUNGICIDE FOR CONTROL OF PHYTOPATHOGENIC FUNGI OF BARLEY” (Dow AgroSciences LLC, priority 2016, published 2019).

Test system: Rhyncosporium secalis (RHYNSE)
Test: Field assessment of barley leaf scald, Trial 2 (EC and SC formulations)
Assay type: in vivo
Settings: based on AUDPC, winter barley
Excerpt: Trial 2: Fungicidal treatments of Compound I were applied using two separate adjuvant systems. In the first system, an EC formulation of compound I was tank mixed with Agnique BP-420 (50%) at an active:adjuvant ratio of 1:2. The second adjuvant system was an SC formulation of Compound I tank mixed with Agnique BP-420 EW (38.5%) at an active:adjuvant ratio of 1:2 and Agnique FOH TDA-9 (30% w/w) applied at 0.33% V/V. Both the EC and SC formulation was sprayed on barley plants at rates of 25, 50, 75, 100, 150, 200 and 250 grams active ingredient per hectare (g ai/ha). Fungicidal treatments were applied at B39 (early curative, 1% infection on leaf 1) growth stage of winter barley (HORVW, Maris Otter variety) under natural infection of RHYNSE. The treatment was part of an experimental trial designed as a randomized complete block with four replications.
Disease severity was recorded as a percentage of visual diseased foliage on whole plot. Barley leaf scald infection was recorded following EPPO PP1/26 guideline prescriptions. Area under the disease progress curve (AUDPC) was calculated for each plot using the sets of recorded severity data. Relative AUDPC (% control based on AUDPC) was calculated as percent of the nontreated control.
In each case of the following Tables, the rating scale of percent control based on AUDPC is as follows: […]

SMILES: N#Cc1ccc(Oc2ccc(C(F)(F)C(O)(Cn3ncnc3S)c3ccc(F)cc3F)nc2)cc1 (centres unmarked) [Compound I, 4-((6-(2-(2,4-difluorophenyl)-1,1-difluoro-2-hydroxy-3-(5-mercapto-1H-1,2,4-triazol-1-yl)propyl)pyridin-3-yl)oxy)benzonitrile]
- Percent Control RHYNSE (25 g ai/ha, EC + Agnique BP-420): C (26-50)
- Percent Control RHYNSE (25 g ai/ha, SC + Agnique BP-420 EW and Agnique FOH TDA-9): C (26-50)
- Percent Control RHYNSE (50 g ai/ha, EC + Agnique BP-420): C (26-50)
- Percent Control RHYNSE (50 g ai/ha, SC + Agnique BP-420 EW and Agnique FOH TDA-9): C (26-50)
- Percent Control RHYNSE (75 g ai/ha, EC + Agnique BP-420): B (51-74)
- Percent Control RHYNSE (75 g ai/ha, SC + Agnique BP-420 EW and Agnique FOH TDA-9): C (26-50)
- Percent Control RHYNSE (100 g ai/ha, EC + Agnique BP-420): B (51-74)
- Percent Control RHYNSE (100 g ai/ha, SC + Agnique BP-420 EW and Agnique FOH TDA-9): C (26-50)
- Percent Control RHYNSE (150 g ai/ha, EC + Agnique BP-420): B (51-74)
- Percent Control RHYNSE (150 g ai/ha, SC + Agnique BP-420 EW and Agnique FOH TDA-9): B (51-74)
- Percent Control RHYNSE (200 g ai/ha, EC + Agnique BP-420): B (51-74)
- Percent Control RHYNSE (200 g ai/ha, SC + Agnique BP-420 EW and Agnique FOH TDA-9): B (51-74)
- Percent Control RHYNSE (250 g ai/ha, EC + Agnique BP-420): B (51-74)
- Percent Control RHYNSE (250 g ai/ha, SC + Agnique BP-420 EW and Agnique FOH TDA-9): B (51-74)
